How the values were obtained:
[1] = tested on: wound in rat; assay: Healing effect on wound in rat; assay type: in vivo, SD rats; settings: for Healing days / Healing Index: 15 days; for effect on healing days and Healing Index (in words): TABLES 7 and 8
Description: Healing Effect on wound in rat
Male 7-week SD rats were classified into groups each consisting of 6-7 rats, such that all the groups have substantially the same average weight. The experiment was performed on the rats according to a method of Tsurumi et al. (Oyo Yakuri, Vol. 7, pp833, 1973). Initially, the rats were subjected to an anesthesia with pentobarbital. The hair of the back of each rat was clipped, and the skin was disinfected with 70% ethanol. Then, the skin was lightly pulled and punched off in a direction from the right to the left by means of a punch whose diameter is 10 mm, so as to form two open wounds on portions of the back of the rat which are symmetrical to each other with respect to the center line of the back. The compounds of Examples indicated in the following TABLES 7 and 8 were used as specimen drugs, and orally administered once a day to each of the rats with doses indicated in the TABLES 7 and 8. The oral administration continued for 15 consecutive days, beginning from the first day when the wounds were formed on the back of each rat.
To clarify the healing effect on the wounds, an Healing Index and healing days were obtained in the following manner. Initially, the lengths of a major axis and a minor axis of each wound formed on the back were measured using calipers. On the basis of the measured length values, the area of each wound was calculated as the area of an ellipse. The Healing Index was obtained according to a method of Nakano et al. (Oyo Yakuri, Vol. 47, pp29, 1994). Described more specifically, a ratio of area of each wound was chronologically represented in a graph, and an area of the lower part of a curve in the graph during a period from the fifth day to the fifteenth day after the wounds were formed was obtained as the Healing Index. […] The healing days were obtained as the number of the days that were required for the wounds to be completely covered with regenerated epidermises. As for the wound that was healed in more than 15 days, the healing days were obtained as 16 days.

[2] = tested on: bFGF mRNA; assay: Effect on additional expression of bFGF mRNA in RGM1 cells (RT-PCR, band intensity); assay type: cell-based, rat; design: key: ++: the expression of the bFGF mRNA in the imidazoline-treated cells was considerably increased; +: the expression of the bFGF mRNA was increased to some extent; settings: 48 hours, vs cells without the derivative
From the text: Effect of imidazoline derivatives on the additional expression of the bFGF
There will be next explained an effect of the imidazoline derivatives in vitro.
Initially, there will be explained an effect of the imidazoline derivative on the additional expression of bFGF in the cells cultured. The reverse transcription-polymerase chain reaction (PCR) was used to explain the effects of imidazoline derivatives on the additional expression of bFGF, and then the PCR products were subjected to electrophoresis to confirm a bFGF band.
An established rat gastric mucosal epithelial cell line RGM1 was seeded in petri dishes (1×10^6 cells/dish), in the presence of D-MEM/Ham 12 (1:1) mixed medium containing 20% fetal calf serum. After 24 hours, the imidazoline derivatives as the specimen drugs according to the present invention were applied in the culture medium, and the cells were cultured for 48 hours. The compounds prepared in Examples 1 and 14 were used as the specimen drugs. Cultures were then supplemented with the compounds in final concentrations (10 μM and 100 μM for the compound of Example 1, and 3 μM, 10 μM and 100 μM for the compound of Example 14).
From the cultured cells of each sample subjected to the above-described processing by the specimen drugs, total cellular RNA was extracted according to Acid Guanidinium Thiocyanate-Phenol-Chloroform method (AGPC). Described more specifically, after cultivation with the above compounds in the culture medium, the culture supernatant was completely removed by suction. To the cells of each sample left in the petri dish, 500 μL of Solution D (consisting of: 4M of guanidinethiocyanate; 25 mM of sodium citrate; 0.5% sarkosyl solution, 0.1M of 2-mercaptoethanol) was added, and the cells were scraped with rubber policeman (available from SUMITOMO BAKELITE CO., LTD.). The thus obtained cell suspension was transfered into a micro centrifuge tube, and there were successively added 50 μL of 2M sodium acetate (pH 4.0), 500 μL of water-saturated phenol and 100 μL of chloroform-isoamyl alcohol (49:1). The suspension was mixed each time the above-described substances were added. The suspension was placed on ice for 15 minutes after it was intensely shaken for 1 minute. Then, the suspension was centrifuged at 10000 rpm for 20 minutes at 4° C. The aqueous layer (upper layer) was transfered into another micro centrifuge tube, and was intimately mixed with an equivalent amount of isopropanol. After the mixture was kept at -20° C. for one hour, it was centrifuged at 10000 rpm for 20 minutes at 4° C. After the centrifugation, the upper layer was discarded, and a precipitate of mRNA was completely dissolved in 200 μL of Solution D. The thus obtained solution was mixed again with an equivalent amount of isopropanol and the mixture was kept at -20° C. for one hour. The mixture was then subjected to centrifugation for 20 minutes at 4° C. and 10000 rpm. After the centrifugation, the supernatant was discarded, and the precipitate was centrifuged at 10000 rpm for 10 minutes at 4° C. The supernatant was discarded, while the precipitate was dried in vacuo for 5 minutes. The total RNA was dissolved in 50 μL of distilled water processed by diethyl pyrocarbonate (DEPC). The concentration of total RNA was measured on the basis of its absorbance at 260 nm by ultraviolet spectrum.
The CDNA synthesis was performed by means of Reverse Transcriptase using the above obtained total RNA as a template. As a primer, a random primer was employed. […]

[3] = tested on: water-immersion restraint stress-induced gastric ulcer; assay: Inhibitory effect on water-immersion restraint stress-induced gastric ulcer; assay type: in vivo, SD rats; settings: 10 mg/kg oral, 30 min before stress
Description: Inhibitory effect on water-immersion restraint stress-induced gastric ulcer
Male 7-week SD rats were fasted for 24 hours, with a fast of water beginning in early morning of the day when the experiments were performed. The rats were classified into groups each consisting of five rats, such that all the groups have substantially the same average weight. Thirty minutes before giving a stress to the rats, the compounds of the Examples indicated in TABLE 3 were orally administered as specimen drugs to the rats, with a dose of 10 mg/kg. The rats were then kept in stress cages, and were given a stress by immersing the cages in a water bath kept at a substantially constant temperature of 23°±1° C., such that the water level was at the height of the xiphoid of the rats. Seven hours later, the specimen rats were sacrificed by ether, and the gastric mucosa of each rat was semi-fixed with 2% formaline. The longitudinal length of the damaged area of the gastric mucosa was measured. A sum of the measured length values of the rats of each group was calculated as an ulcer index. An anti-ulcer or ulcer inhibitory percent (%) was calculated as {1-(ulcer index of each group of specimen rats)/(ulcer index of non-specimen group)}×100.

[4] = tested on: bFGF; assay: Production amount of bFGF in RGM1 culture supernatant (ELISA); assay type: cell-based, Wistar rat; settings: not stated which
Description: Effect of imidazoline derivatives on the additional expression of bFGF
Initially, RGM1 cells which are derived from a gastric mucosa epithelial cell of a Wistar rat were seeded into 24 well plates (2×10^4 cells/dish, 1 mL/well), and cultured for 24 hours. As the imidazoline derivative according to the present invention, the compound obtained in Example 14 was used. The compound was applied to the cells in final concentrations of 3 μM, 10 μM and 30 μM. After 24 hours, the culture supernatants which correspond to the respective concentration values were collected, and analyzed using bFGF ELISA kit. Similarly, the culture supernatants were collected 48 hours after the application of the compound. Described more specifically, 50 μL of each culture supernatant was applied to a 96 well microplate coated with bFGF monoclonal antibody. The plate was incubated for a predetermined time so that the bFGF contained in each culture supernatant was bonded to the bFGF monoclonal antibody. Thereafter, each supernatant was reacted with horseradish peroxidase conjugated antibody which is able to recognize another epitope of the bFGF, so as to form, on the 96 well microplate, a sandwich type composite body consisting of immobilized antibody (bFGF monoclonal antibody), antigen (bFGF), and HRP linked antibody. Subsequently, HRP linked antibody of the composite body was colored using o-phenylenediamine and H2 O2. The reaction was terminated by using sulfuric acid after a predetermined time has elapsed. Then, the absorbance of reactant at 490 nm was measured using a micro-platereader. The production amount of the bFGF was obtained for each culture supernatant, on the basis of the measured absorbance values, according to a standard curve prepared for a standard bFGF of a human body.

[5] = tested on: gastric acid secretion in a pylorus ligated rat; assay: Inhibitory effect on the gastric acid secretion in a pylorus ligated rat; assay type: in vivo, SD rats; settings: 4 hours
Description: Inhibitory effect on the gastric acid secretion in a pylorus ligated rat Male 7-week SD rats were fasted for 24 hours, with a fast of water beginning in early morning of the day when the experiments were performed. The rats were classified into groups each consisting of five rats, such that all the groups have substantially the same average weight. The experiments were performed according to a method of Shay et. al. (Shay, H. et. al., Gastroenterology, Vol. 5, pp43, 1945). Described more specifically, each of the rats was subjected to a light anesthesia by ether, and the hair of the abdomen of each rat was clipped. Then, the abdomen was incised over a length of 1.5 cm along the center line downwards from a portion 1 cm below the xiphoid of the rat, and the stomach was taken out of the body. A portion connecting the pylorus and the duodenum was ligated by suturing thread. […] After the administration, the skin of the abdominal muscle and abdomen was sutured. The rats were kept in cages and fasted for 4 hours with a fast of water. Then, the rats were sacrificed by ether, and the stomach of each rat was removed. The gastric content was obtained from a small hole formed through the stomach of each rat and was collected in a test tube. […] An amount of supernatant was measured as a volume of gastric acid, and a total acidity of the gastric acid was also measured. A volume of gastric acid inhibitory percent (%) and a total acidity inhibitory percent (%) were calculated in the same manner as the ulcer inhibitory percent was calculated. The total acidity was obtained as a product of the amount of gastric acid secreted for 4 hours and the acidity per 1 mL of the gastric acid which was subjected to neutralization titration by an aqueous solution of 0.01N sodium hydroxide.

## CC1(C)N=C([S+]([O-])Cc2ccccc2NC(=O)C(F)(F)F)NC1=S (centres unmarked) [Example 1, 2-(2-N-trifluoroacetylaminobenzylsulfinyl)-5,5-dimethylimidazolin-4-thione]
[1]; TABLE 7, 50 mg/kg oral once a day, control 15.1 ± 0.22
  Healing days: 14.4 ± 0.38 days
[1]; TABLE 7, 50 mg/kg oral once a day, control 188.3 ± 18.2
  Healing Index: 183.2 ± 11.2
[1]; TABLE 7, 100 mg/kg oral once a day, control 15.1 ± 0.22
  Healing days: 14.2 ± 0.37 days
[1]; TABLE 7, 100 mg/kg oral once a day, control 188.3 ± 18.2
  Healing Index: 157.5 ± 18.9
[1]
  effect on healing days and Healing Index (in words): effective to reduce the healing days and lower the Healing Index
[2]; 10 μM
  Band Intensity: +
[2]; 100 μM
  Band Intensity: +

## CCC1(CC)N=C([S+]([O-])Cc2ccccc2N(C)C)NC1=S (centres unmarked) [Example 7, 2-(2-dimethylaminobenzylsulfinyl)-5,5-diethylimidazolin-4-thione]
[3]
  Inhibitory Percent (ulcer): 53.9%

## CC1(C)N=C([S+]([O-])Cc2ccccc2NCC(F)(F)F)NC1=S (centres unmarked) [Example 12, 2-[2-N-(2,2,2-trifluoroethyl)aminobenzylsulfinyl]-5,5-dimethylimidazolin-4-thione]
[3]
  Inhibitory Percent (ulcer): 46.6%

## CC(C)CN(C)c1ccccc1C[S+]([O-])C1=NC(C)(C)C(=S)N1 (centres unmarked) [Example 14, 2-(2-N-isobutyl-N-methylaminobenzylsulfinyl)-5,5-dimethylimidazolin-4-thione]
[1]; TABLE 8, 50 mg/kg oral once a day, control 14.3 ± 0.37
  Healing days: 13.5 ± 0.42 days
[1]; TABLE 8, 50 mg/kg oral once a day, control 152.0 ± 9.5
  Healing Index: 116.5 ± 7.0
[1]; TABLE 8, 100 mg/kg oral once a day, control 14.3 ± 0.37
  Healing days: 13.6 ± 0.44 days
[1]; TABLE 8, 100 mg/kg oral once a day, control 152.0 ± 9.5
  Healing Index: 126.5 ± 8.3
[1]
  effect on healing days and Healing Index (in words): effective to reduce the healing days and lower the Healing Index
[2]; 3 μM
  Band Intensity: ++
[2]; 10 μM
  Band Intensity: ++
[2]; 100 μM
  Band Intensity: ++
[4]; concentration of drug 3, 24 or 48 hours
  Production amount of bFGF: 15 pg/mL
[4]; concentration of drug 10, 24 or 48 hours
  Production amount of bFGF: 29 pg/mL
[4]; concentration of drug 30, 24 or 48 hours
  Production amount of bFGF: 36 pg/mL

## CN/C(=N/CCSCc1nc[nH]c1C)NC#N [cimetidine]
[5]; 10 mg/kg intraduodenal
  Total acidity Inhibitory percent: 27.7%
  Volume of Gastric acid Inhibitory percent: 22.7%
[5]; 30 mg/kg intraduodenal
  Total acidity Inhibitory percent: 51.8%
  Volume of Gastric acid Inhibitory percent: 31.2%
[5]; 100 mg/kg intraduodenal
  Total acidity Inhibitory percent: 76.1%
  Volume of Gastric acid Inhibitory percent: 52.8%

Reference: US5750552A, “Imidazoline derivative, possible tautomer thereof, and vulnerary including such derivative or tautomer” (Arax Co., Ltd., priority 1995, dated 1998)
